From ChEMBL document CHEMBL5108027, “An unanticipated discovery of novel naphthalimidopropanediols as potential broad-spectrum antibacterial members” (Eur J Med Chem, 2022)
Converted amounts (≈) assume the structure as drawn. The source made the active and inactive calls. The rule behind the calls is not given here.

Columns and labels:
Staphylococcus aureus [1] = assay: Antibacterial activity against methicillin-resistant Staphylococcus aureus N315 measured by Muller-Hinton broth based microdilution assay; format: functional
Enterococcus faecalis = assay: Antibacterial activity against Enterococcus faecalis measured by Muller-Hinton broth based microdilution assay; format: functional
Staphylococcus aureus [2] = assay: Antibacterial activity against Staphylococcus aureus measured by Muller-Hinton broth based microdilution assay; format: functional
Staphylococcus aureus [3] = assay: Antibacterial activity against Staphylococcus aureus ATCC 25923 measured by Muller-Hinton broth based microdilution assay; format: functional
Staphylococcus aureus [4] = assay: Antibacterial activity against Staphylococcus aureus ATCC 29213 measured by Muller-Hinton broth based microdilution assay; format: functional
Klebsiella pneumoniae = assay: Antibacterial activity against Klebsiella pneumoniae measured by Muller-Hinton broth based microdilution assay; format: functional
Escherichia coli [5] = assay: Antibacterial activity against Escherichia coli measured by Muller-Hinton broth based microdilution assay; format: functional
Pseudomonas aeruginosa [6] = assay: Antibacterial activity against Pseudomonas aeruginosa measured by Muller-Hinton broth based microdilution assay; format: functional
Acinetobacter baumannii = assay: Antibacterial activity against Acinetobacter baumannii measured by Muller-Hinton broth based microdilution assay; format: functional
Pseudomonas aeruginosa [7] = assay: Antibacterial activity against Pseudomonas aeruginosa ATCC 27853 measured by Muller-Hinton broth based microdilution assay; format: functional
Escherichia coli [8] = assay: Antibacterial activity against Escherichia coli ATCC 25922 measured by Muller-Hinton broth based microdilution assay; format: functional
[9] = Hemolytic activity in human RBC measured after 1 hr; format: toxicity, cell-based, Erythrocyte; conditions: human red blood cells (erythrocytes)
[10] = Selectivity ratio of HC50 for hemolytic activity in human RBC to MIC for antibacterial activity against Pseudomonas aeruginosa; format: toxicity; conditions: human red blood cells (erythrocytes)
[11] = Hemolytic activity in human RBC assessed as hemolytic rate at 2 to 512 ug/ml and measured after 1 hr; format: toxicity, cell-based, Erythrocyte; conditions: human red blood cells (erythrocytes), at 2 to 512 µg/mL, dose 2-512 µg/ml, read-out: Activity
Pseudomonas aeruginosa [12] = assay: Antibacterial activity against Pseudomonas aeruginosa measured after 16 passages by resistance development assay; format: functional, organism-based
Pseudomonas aeruginosa [13] = assay: Inhibition of bacterial growth of Pseudomonas aeruginosa at 1 to 2 times MIC; format: functional
Pseudomonas aeruginosa [14] = assay: Bactericidal activity against Pseudomonas aeruginosa assessed as reduction in number of colonies at 0.5 to 2 times MIC measured within 6 hrs by time-kill assay; format: functional, organism-based
Pseudomonas aeruginosa [15] = assay: Induction of membrane depolarization in Pseudomonas aeruginosa at 0.5 to 2 times MIC measured upto 1 hr by DiSC35 dye-based fluorescence assay; format: functional, organism-based
Pseudomonas aeruginosa [16] = assay: Induction of outer membrane permeabilization in Pseudomonas aeruginosa preincubated for 30 mins at 1 to 8 times MIC measured by NPN fluorescent dye based assay; format: functional, organism-based
Pseudomonas aeruginosa [17] = assay: Induction of inner membrane permeabilization in Pseudomonas aeruginosa by measuring increase in fluorescence intensity at 1 to 8 times MIC by calcein-AM/PI staining based fluorescence analysis; format: functional, organism-based
Pseudomonas aeruginosa [18] = assay: Disruption of membrane integrity in Pseudomonas aeruginosa at 8 times MIC by calcein-AM/PI staining based fluorescence analysis; format: functional, organism-based
Pseudomonas aeruginosa [19] = assay: Disruption of membrane integrity in Pseudomonas aeruginosa assessed as increase in nucleic acid leakage by measuring increase in absorbance 1 to 8 times MIC measured for 6 hrs by spectrophotometry; format: functional, organism-based
Pseudomonas aeruginosa [20] = assay: Disruption of membrane integrity in Pseudomonas aeruginosa assessed as increase in protein leakage by measuring increase in absorbance 1 to 8 times MIC measured for 6 hrs by Bradford assay; format: functional, organism-based
Pseudomonas aeruginosa [21] = assay: Antibacterial activity against Pseudomonas aeruginosa assessed as reduction in LDH activity at 1 to 8 times MIC measured after 6 hrs by microplate reader method; format: functional; design: scale not given: the % may be the effect or the level left
Pseudomonas aeruginosa [22] = assay: Induction of oxidative stress in Pseudomonas aeruginosa assessed as increase in intracellular ROS level at 1 to 8 times MIC measured after 6 hrs by DCFH-DA staining method; format: functional, organism-based
Pseudomonas aeruginosa [23] = assay: Induction of oxidative stress in Pseudomonas aeruginosa assessed as decrease in GSH activity at 1 to 8 times MIC measured after 6 hrs by Ellman's assay; format: functional, organism-based
Pseudomonas aeruginosa [24] = assay: Antibacterial activity against Pseudomonas aeruginosa assessed as reduction in metabolic activity at 1 to 8 times MIC measured after 6 hrs by Alamar blue assay; format: functional, organism-based
Pseudomonas aeruginosa [25] = assay: Inhibition of biofilm formation in Pseudomonas aeruginosa at 1 to 8 times MIC measured after 24 hrs by crystal violet staining method; format: functional, organism-based
Pseudomonas aeruginosa [26] = assay: Antibiofilm activity in Pseudomonas aeruginosa at 1 to 8 times MIC measured by Alamar blue assay; format: functional, organism-based
L929 = assay: Cytotoxicity against mouse L929 cells assessed as effect on cell growth at 0.25 to 0.5 ug/ml incubated for 24 hrs by MTT assay; format: toxicity, cell-based; conditions: l929, 24 h, dose 0.25-0.5 µg/ml

SMILES	MIC (Staphylococcus aureus [1]) [µg/mL]	MIC (Enterococcus faecalis) [µg/mL]	MIC (Staphylococcus aureus [2]) [µg/mL]	MIC (Staphylococcus aureus [3]) [µg/mL]	MIC (Staphylococcus aureus [4]) [µg/mL]	MIC (Klebsiella pneumoniae) [µg/mL]	MIC (Escherichia coli [5]) [µg/mL]	MIC (Pseudomonas aeruginosa [6]) [µg/mL]	MIC (Acinetobacter baumannii) [µg/mL]	MIC (Pseudomonas aeruginosa [7]) [µg/mL]	MIC (Escherichia coli [8]) [µg/mL]	HC50 at 1 h [9] [µg/mL]	selectivity ratio [10]	hemolysis at 1 h [11] [%]	Activity (Pseudomonas aeruginosa [12])	inhibition (Pseudomonas aeruginosa [13])	Activity (Pseudomonas aeruginosa [14])	Activity (Pseudomonas aeruginosa [15])	Activity (Pseudomonas aeruginosa [16])	Activity (Pseudomonas aeruginosa [17])	other results
COc1ccc(/C=N/Nc2ccc3c4c(cccc24)C(=O)N(C(CO)CO)C3=O)cc1	64 (≈ 153 µM)	64 (≈ 153 µM)	32 (≈ 76.3 µM)	64 (≈ 153 µM)	128 (≈ 305 µM)	32 (≈ 76.3 µM)	16 (≈ 38.1 µM)	0.5 (≈ 1.19 µM)	64 (≈ 153 µM)	2 (≈ 4.77 µM)	64 (≈ 153 µM)	> 1000	> 2000	< 5	Active	Active	Active	Active	Active	Active	Activity (Pseudomonas aeruginosa [18]): Active; Activity (Pseudomonas aeruginosa [19]): Active; Activity (Pseudomonas aeruginosa [20]): Active; Activity (Pseudomonas aeruginosa [21]): 70%; Activity (Pseudomonas aeruginosa [22]): Active; Activity (Pseudomonas aeruginosa [23]): Active; Activity (Pseudomonas aeruginosa [24]): Active; inhibition (Pseudomonas aeruginosa [25]): Active; Activity (Pseudomonas aeruginosa [26]): Active; Activity (L929): Non-Toxic
O=C1c2cccc3c(N/N=C/c4ccc5ccccc5c4)ccc(c23)C(=O)N1C(CO)CO	64 (≈ 146 µM)	64 (≈ 146 µM)	4 (≈ 9.1 µM)	64 (≈ 146 µM)	128 (≈ 291 µM)	32 (≈ 72.8 µM)	16 (≈ 36.4 µM)	0.5 (≈ 1.14 µM)	64 (≈ 146 µM)	1 (≈ 2.28 µM)	32 (≈ 72.8 µM)	> 1000	> 2000	< 5	Active	Active	Active	Active	Active	Active	Activity (Pseudomonas aeruginosa [18]): Active; Activity (Pseudomonas aeruginosa [19]): Active; Activity (Pseudomonas aeruginosa [20]): Active; Activity (Pseudomonas aeruginosa [21]): 70%; Activity (Pseudomonas aeruginosa [22]): Active; Activity (Pseudomonas aeruginosa [23]): Active; Activity (Pseudomonas aeruginosa [24]): Active; inhibition (Pseudomonas aeruginosa [25]): Active; Activity (Pseudomonas aeruginosa [26]): Active; Activity (L929): Non-Toxic
